Patent US20110269759A1, “PYRIMIDINE COMPOUNDS AS DELTA OPIOID RECEPTOR MODULATORS” (priority 2009, published 2011)
Where two headings read alike, the source gives them in different places.

Tests used:
[1] = target: T1, Delta Opioid Receptor (Rattus norvegicus, UniProt P33533); test: Rat brain delta opioid receptor binding assay ([3H]DPDPE or [3H]naltrindole)
T1 construct: the forebrains were homogenized in Tris buffer in a Teflon®-glass homogenizer; from tissue; host or cells: forebrain of male Wistar rats, particulate membrane preparation

[2] = target: T2, Mu Opioid Receptor (Rattus norvegicus, UniProt P33535); test: Rat brain mu opioid receptor binding assay ([3H]DAMGO)
T2 construct: the forebrains were homogenized in Tris buffer in a Teflon®-glass homogenizer; from tissue; host or cells: forebrain of male Wistar rats, particulate membrane preparation

[3] = target: δ-opioid receptor (Mus musculus, UniProt P32300); test: [35S]GTPγS δ-opioid receptor functional assay (EC50, relative efficacy, % inhibition); type: biochemical; design: NG108-15 cell membranes were purchased from Applied Cell Sciences (Rockville, Md.); details: for inhibition at 10 µM: read-out: GTPγS δ-opioid receptor % Inh @10 μM
[4] = target: T3, Delta Opioid Receptor (Mus musculus, UniProt P32300); test: NG108-15, 24-well delta opioid receptor binding assay ([3H]naltrindole)
T3 construct: NG108-15 cell membranes were purchased from Applied Cell Sciences (Rockville, Md.); host or cells: NG108-15 cell membranes (purchased)

[5] = rat forebrain membranes, 0.25 nM [3H]naltrindole, read-out: δ-binding (Naltrindole ligand) Ki
[6] = rat forebrain membranes, ~0.8 nM [3H]DAMGO, read-out: μ-binding Ki
[7] = rat forebrain membranes, ~4 nM [3H]DPDPE, read-out: δ-binding (DPDPE ligand) Ki

Sequence of δ-opioid receptor (P32300 whole entry): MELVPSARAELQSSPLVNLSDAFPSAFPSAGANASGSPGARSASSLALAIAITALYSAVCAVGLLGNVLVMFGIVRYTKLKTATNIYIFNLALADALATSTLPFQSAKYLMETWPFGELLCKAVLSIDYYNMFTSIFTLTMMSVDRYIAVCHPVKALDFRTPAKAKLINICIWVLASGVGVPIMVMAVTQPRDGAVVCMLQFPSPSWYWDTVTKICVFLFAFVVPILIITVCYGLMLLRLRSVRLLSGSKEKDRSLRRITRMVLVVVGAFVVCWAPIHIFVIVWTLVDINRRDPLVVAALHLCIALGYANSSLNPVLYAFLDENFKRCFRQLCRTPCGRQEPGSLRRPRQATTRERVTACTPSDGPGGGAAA
T2 sequence (P33535 whole entry): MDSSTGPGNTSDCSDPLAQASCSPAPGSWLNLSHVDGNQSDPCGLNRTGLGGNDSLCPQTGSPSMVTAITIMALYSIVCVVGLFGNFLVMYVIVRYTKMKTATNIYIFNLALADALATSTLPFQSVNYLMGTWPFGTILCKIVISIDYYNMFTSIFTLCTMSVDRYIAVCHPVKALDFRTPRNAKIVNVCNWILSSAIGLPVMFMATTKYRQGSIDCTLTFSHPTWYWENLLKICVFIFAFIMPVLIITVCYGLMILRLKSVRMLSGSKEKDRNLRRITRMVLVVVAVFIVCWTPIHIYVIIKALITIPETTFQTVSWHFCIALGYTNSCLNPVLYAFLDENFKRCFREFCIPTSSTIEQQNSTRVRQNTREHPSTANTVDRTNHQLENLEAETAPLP
T1 sequence (P33533 whole entry): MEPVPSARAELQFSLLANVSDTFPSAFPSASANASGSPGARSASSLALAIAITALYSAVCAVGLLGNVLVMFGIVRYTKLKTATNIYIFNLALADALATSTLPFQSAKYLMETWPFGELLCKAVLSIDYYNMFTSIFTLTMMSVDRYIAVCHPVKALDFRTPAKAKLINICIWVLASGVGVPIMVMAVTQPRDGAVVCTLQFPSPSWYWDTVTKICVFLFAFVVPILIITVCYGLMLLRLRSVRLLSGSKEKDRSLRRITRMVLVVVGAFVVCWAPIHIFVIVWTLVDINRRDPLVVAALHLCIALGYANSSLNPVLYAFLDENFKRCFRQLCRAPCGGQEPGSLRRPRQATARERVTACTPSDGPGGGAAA
T3 sequence (P32300 whole entry): as the sequence (P32300 whole entry) above

| SMILES | Ki [1, 5] [nM] | Ki [2, 6] [nM] | Ki [1, 7] [nM] | further results |
| --- | --- | --- | --- | --- |
| NC(=O)c1cccc(Oc2cc(-c3ccccc3)ccc2NC[C@@H]2CCCN2)c1 [Cpd 30] | 126 |  |  | Ki [2]: 5800 nM; EC50 [3]: 1020 nM; GTPγS δ-opioid receptor Rel Efficacy [3]: 0.2668; inhibition at 10 µM [3]: 36.5% |
| O=C(O)c1ccc(Oc2cc(-c3ccccc3)ccc2NC[C@@H]2CCCN2)cc1 [Cpd 31, (S)-4-{4-[(Pyrrolidin-2-ylmethyl)-amino]-biphenyl-3-yloxy}-benzoic acid] | 7690 | > 10000 |  |  |
| O=C(O)c1cccc(Oc2cc(-c3ccccc3)ccc2NC[C@@H]2CCCN2)c1 [Cpd 32] | 2670 |  |  |  |
| CCN(CC)C(=O)c1ccc(Oc2cc(-c3ccccc3)ccc2NC[C@@H]2CCCN2)cc1 [Cpd 33, (S)-N,N-Diethyl-4-{4-[(pyrrolidin-2-ylmethyl)-amino]-biphenyl-3-yloxy}-benzamide] | 284 |  |  | Ki [2]: 9300 nM |
| CCN(CC)C(=O)c1cccc(Oc2cc(-c3ccccc3)ccc2NC[C@@H]2CCCN2)c1 [Cpd 34] | 310 |  |  |  |
| COc1ccc(Oc2cc(-c3ccccc3)ccc2NC[C@@H]2CCCN2)cc1 [Cpd 35, (S)-[3-(4-Methoxy-phenoxy)-biphenyl-4-yl]-pyrrolidin-2-ylmethyl-amine] |  |  |  | Ki [1]: 28.9 nM; Ki ([2]; read-out: μ-binding Ki): > 10000 nM; inhibition at 10 µM [3]: 1% |
| COc1ccc(Oc2cc(-c3ccc4ccccc4c3)ccc2NC[C@@H]2CCCN2)cc1 [Cpd 36, (S)-[2-(4-Methoxy-phenoxy)-4-naphthalen-2-yl-phenyl]-pyrrolidin-2-ylmethyl-amine] | 290 | > 10000 |  |  |
| COc1ccc(Oc2cc(-c3cccc4ccccc34)ccc2NC[C@@H]2CCCN2)cc1 [Cpd 37] | 301 |  |  |  |
| COc1ccc(Oc2cc(-c3ccoc3)ccc2NC[C@@H]2CCCN2)cc1 [Cpd 40] | 205 |  |  |  |
| COc1ccc(Oc2cc(-c3ccsc3)ccc2NC[C@@H]2CCCN2)cc1 [Cpd 41] | 290 |  |  |  |
| Oc1ccc(Oc2cc(-c3cccnc3)ccc2NC[C@@H]2CCCN2)cc1 [Cpd 45, (S)-4-{5-Pyridin-3-yl-2-[(pyrrolidin-2-ylmethyl)-amino]-phenoxy}-phenol] |  |  |  | Ki [1]: 5.42 nM; Ki [2]: 4460 nM; EC50 [3]: 40.8 nM; GTPγS δ-opioid receptor Rel Efficacy [3]: 0.627; inhibition at 10 µM [3]: 35.6% |
| COc1ccc(Oc2cc(-c3ccccc3)ccc2N2CCNCC2)cc1 [Cpd 46, 1-[3-(4-Methoxy-phenoxy)biphenyl-4-yl]piperazine] |  |  |  | Ki [1]: 79.7 nM; Ki ([2]; read-out: μ-binding Ki): > 10000 nM |
| COc1ccc(Oc2cc(-c3ccccc3)ccc2N2CCN(C)CC2)cc1 [Cpd 47, 1-[3-(4-Methoxy-phenoxy)biphenyl-4-yl]-4-methyl-piperazine] | 2220 | > 10000 |  |  |
| COc1ccc(Oc2cc(-c3noc(=O)[nH]3)ccc2NC[C@@H]2CCCN2)cc1 [Cpd 48, (S)-3-{3-(4-Methoxy-phenoxy)-4-[(pyrrolidin-2-ylmethyl)-amino]-phenyl}-4H-[1,2,4]oxadiazol-5-one] |  | 9700 | 492 |  |
| CCN(C[C@@H]1CCCN1)c1ccc(-c2cccnc2)cc1Oc1ccc(OC)cc1 [Cpd 49, (S)-Ethyl-[2-(4-methoxy-phenoxy)-4-pyridin-3-yl-phenyl]-pyrrolidin-2-ylmethyl-amine] |  |  |  | Ki ([4]; NG108-15 cell membranes, ~0.2 nM [3H]naltrindole, read-out: δ-binding NG108 cell membrane Ki): 29 nM |
| CCN(C[C@@H]1CCCN1)c1ccc(-c2cncc(F)c2)cc1Oc1ccc(OC)cc1 [Cpd 50] |  |  |  | Ki [4]: 23 nM |
| COc1ccc(Oc2ccc(NC[C@@H]3CCCN3)c(Oc3ccc(OC)cc3)c2)cc1 [Cpd 53, (S)-[2,4-Bis-(4-methoxy-phenoxy)-phenyl]-pyrrolidin-2-ylmethyl-amine] |  | > 10000 | 105 | EC50 [3]: 319 nM; inhibition at 10 µM [3]: 28.2% |
| COc1ccc(Oc2ccc(NC[C@@H](N)CO)c(Oc3ccc(OC)cc3)c2)cc1 [Cpd 55] |  |  | 1370 |  |
| COc1ccc(Oc2ccc(NC3CCNCC3)c(Oc3ccc(OC)cc3)c2)cc1 [Cpd 56] |  | > 10000 | 1730 |  |
| COc1ccc(Oc2ccc(NC3CC4CCC(C3)N4)c(Oc3ccc(OC)cc3)c2)cc1 (centres unmarked) [Cpd 57] |  | > 10000 | 1430 |  |
| COc1ccc(Oc2ccc(NCC3CNC3)c(Oc3ccc(OC)cc3)c2)cc1 [Cpd 58] |  | > 10000 | 703 |  |
| COc1ccc(Oc2ccc(N(CC3CNC3)CC3CNC3)c(Oc3ccc(OC)cc3)c2)cc1 [Cpd 59] |  | > 10000 | 2280 |  |
| COc1ccc(Oc2ccc(NC3CN4CCC3CC4)c(Oc3ccc(OC)cc3)c2)cc1 (centres unmarked) [Cpd 60] |  | > 10000 | 158 |  |
| COc1ccc(Oc2ccc(NC3CCCC(N)C3)c(Oc3ccc(OC)cc3)c2)cc1 (centres unmarked) [Cpd 62] |  |  |  | Ki [1]: 40.9 nM; Ki [2]: 1640 nM; EC50 [3]: 381 nM; inhibition at 10 µM [3]: 1.73% |
| CNCCNc1ccc(Oc2ccc(OC)cc2)cc1Oc1ccc(OC)cc1 [Cpd 63, N-[2,4-Bis-(4-methoxy-phenoxy)-phenyl]-N′-methyl-ethane-1,2-diamine] |  |  |  | Ki [1]: 23.7 nM; Ki ([2]; read-out: μ-binding Ki): > 10000 nM; inhibition at 10 µM [3]: 26% |
| CNCCN(CCNC)c1ccc(Oc2ccc(OC)cc2)cc1Oc1ccc(OC)cc1 [Cpd 64, N-[2,4-Bis-(4-methoxy-phenoxy)-phenyl]-N′-methyl-N-(2-methylamino-ethyl)-ethane-1,2-diamine] |  | > 10000 | 1540 |  |
